Assay results as given in the NIST ThermoML archive (doi:10.1016/j.jct.2016.03.026).

Experiment: xn = mol fraction of the nth substance listed
Conditions: Fluid (supercritical or subcritical phases), x1 = 0.97; for speed of sound: 304.19 K, Frequency=5 MHz, Pulse-echo method; for mass density: 304.21 K, Vibrating tube method

O=C=O [carbon dioxide] + CO
Conditions | mass density [kg/m3] | speed of sound [m/s]
7850 kPa | 713.81 | –
7875 kPa | 715.24 | –
7900 kPa | 716.69 | –
7925 kPa | 717.99 | –
7950 kPa | 719.19 | –
7975 kPa | 720.37 | –
8000 kPa | 721.57 | –
8025 kPa | 722.66 | –
8050 kPa | 723.78 | –
8075 kPa | 724.91 | –
8100 kPa | 725.92 | –
8125 kPa | 726.93 | –
8150 kPa | 728.01 | –
8175 kPa | 729.1 | –
8200 kPa | 730.14 | –
8225 kPa | 731.15 | –
8250 kPa | 732.12 | –
8275 kPa | 733.11 | –
8300 kPa | 734.02 | –
8325 kPa | 735.01 | –
8350 kPa | 735.91 | –
8375 kPa | 736.81 | –
8400 kPa | 737.68 | –
8425 kPa | 738.51 | –
8450 kPa | 739.43 | –
8475 kPa | 740.29 | –
8500 kPa | 741.14 | –
8525 kPa | 741.99 | –
8550 kPa | 742.83 | –
8575 kPa | 743.65 | –
8600 kPa | 744.47 | –
8625 kPa | 745.32 | –
8650 kPa | 746.1 | –
8675 kPa | 746.89 | –
8700 kPa | 747.67 | –
8725 kPa | 748.5 | –
8750 kPa | 749.21 | –
8775 kPa | 749.97 | –
8800 kPa | 750.73 | –
8825 kPa | 751.52 | –
8850 kPa | 752.22 | –
8875 kPa | 752.97 | –
8900 kPa | 753.68 | –
8925 kPa | 754.39 | –
8950 kPa | 755.11 | –
8975 kPa | 755.82 | –
9000 kPa | 756.48 | –
9025 kPa | 757.25 | –
9050 kPa | 757.93 | –
9075 kPa | 758.64 | –
9100 kPa | 759.25 | –
9125 kPa | 759.92 | –
9150 kPa | 760.55 | –
9175 kPa | 761.24 | –
9200 kPa | 761.88 | –
9225 kPa | 762.52 | –
9250 kPa | 763.15 | –
9275 kPa | 763.76 | –
9300 kPa | 764.36 | –
9325 kPa | 764.98 | –
9350 kPa | 765.65 | –
9375 kPa | 766.27 | –
9400 kPa | 766.88 | –
9425 kPa | 767.44 | –
9450 kPa | 768.06 | –
9475 kPa | 768.6 | –
9500 kPa | 769.12 | –
9525 kPa | 769.73 | –
9550 kPa | 770.22 | –
9575 kPa | 770.76 | –
9600 kPa | 771.35 | –
9625 kPa | 771.96 | –
9650 kPa | 772.5 | –
9675 kPa | 773.03 | –
9700 kPa | 773.62 | –
9725 kPa | 774.15 | –
9750 kPa | 774.65 | –
9775 kPa | 775.2 | –
9800 kPa | 775.72 | –
9825 kPa | 776.25 | –
9850 kPa | 776.81 | –
9875 kPa | 777.3 | –
9900 kPa | 777.81 | –
9925 kPa | 778.36 | –
9950 kPa | 778.83 | –
9975 kPa | 779.32 | –
10000 kPa | 779.86 | –
10025 kPa | 780.3 | –
10050 kPa | 780.81 | –
10075 kPa | 781.33 | –
10100 kPa | 781.81 | –
10125 kPa | 782.29 | –
10150 kPa | 782.79 | –
10175 kPa | 783.3 | –
10200 kPa | 783.77 | –
10225 kPa | 784.17 | –
10250 kPa | 784.67 | –
10275 kPa | 785.18 | –
10300 kPa | 785.65 | –
10325 kPa | 786.13 | –
10350 kPa | 786.55 | –
10375 kPa | 787.08 | –
10400 kPa | 787.51 | –
10425 kPa | 787.92 | –
10450 kPa | 788.38 | –
10475 kPa | 788.87 | –
10500 kPa | 789.3 | –
10525 kPa | 789.73 | –
10550 kPa | 790.18 | –
10575 kPa | 790.6 | –
10600 kPa | 791.05 | –
65100 kPa | – | 894.9
70230 kPa | – | 919.7
75540 kPa | – | 944.1
79980 kPa | – | 963.6
90070 kPa | – | 1005.1
100040 kPa | – | 1043.2
109900 kPa | – | 1078.3
119960 kPa | – | 1112.5
140090 kPa | – | 1173.8
159770 kPa | – | 1228.8
180450 kPa | – | 1282
